What was measured:
perennial ryegrass [1] = assay: Example 5 greenhouse white clover and turf test, grass damage; type: in vivo, Lolium perenne; details: sprayed twice at 100 ml/m^2, seven days after first spraying
Experimental: (§1) Unless otherwise specified, all of the iron solutions were made using the same molar concentration of iron ion as chelating agent. In the liquid formulations samples were prepared by diluting a metal chelate, iron HEDTA (Neu 1173H) or iron EDTA to the desired level of iron as specified using stirring. Neu 1173H contains the stabilizer sodium citrate at 1.5% prior to dilution. Dilutions of iron HEDTA to the level of 0.25% Fe incorporate 0.08% sodium citrate into the spray solutions. KCl was then diluted and added to the diluted metal chelate.
(§2) In the dry formulations, the iron chelate was simply blended with KCl and with other fertilizer ingredients. Samples were usually prepared within 48 hours of treatment. All of the outside tests were done on areas of grass and white clover that were at least 2 months old. For the greenhouse tests, white clover and dandelion were grown in a commercial greenhouse mix using supplemental lighting and heating. Each plant was grown in a 2¼ inch pot to a minimum diameter of 15-20 cm. Perennial ryegrass was grown in 2¼ inch pots in the same greenhouse conditions as above and they are at least 4 weeks old at the time of application. […]
(§3) All plant damage was visually assessed using a percentage rating scale from 0 (no injury) to 100% (death). […] Percentage control was calculated from the respective weed cover data (e.g. preferably using the Henderson & Tilton formula). […]

white clover = assay: Example 5 greenhouse white clover and turf test, white clover damage; type: in vivo, Trifolium repens; details: sprayed twice at 100 ml/m^2, seven days after first spraying
Experimental: as §1, §2, §3

perennial ryegrass [2] = assay: Example 10 greenhouse dandelion and turf test with sodium sulfate, grass damage; type: in vivo, Lolium perenne; details: sprayed once at 200 ml/m^2, six days after first spraying
Experimental: as §1, §2, §3

dandelion = assay: Example 10 greenhouse dandelion and turf test with sodium sulfate, dandelion damage; type: in vivo, Taraxacum officinale; details: sprayed once at 200 ml/m^2, six days after first spraying
Experimental: as §1, §2, §3

SMILES	Grass Damage (%) (perennial ryegrass [1])	White Clover Damage (%) (white clover)	Grass Damage (%) (perennial ryegrass [2])	Dandelion damage (%) (dandelion)
[Cl-].[K+] [KCl 2%, potassium chloride]	0%	0%	–	–
O=S(=O)([O-])[O-].[Na+].[Na+] [Na2SO4 2%, sodium sulfate]	–	–	4%	0%

From patent US20190124928A1, “ENHANCED HERBICIDAL COMPOSITIONS OF TRANSITION METAL CHELATES” (W. Neudorff GMBH KG, priority 2016, published 2019)
